Here are results for 21 compounds from patent US9187472B2 (AbbVie Inc., priority 2012, dated 2015).

Experiment [1] has as its target NAMPT (human, recombinant, C-terminally His-tagged) (Homo sapiens, UniProt P43490). Description: Time-Resolved Fluorescence Resonance Energy Transfer (TR-FRET) Binding Assay of NAMPT. The following applies: without substrates; 6.8 nM NAMPT, 200 nM probe, 3 hours equilibration. The procedure, abridged: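 11-pt half-log compound series; final 6.8 nM NAMPT, 200 nM OG488 nicotinamide-competitive probe, 1 nM Tb-anti-His Ab, 2% DMSO, HEPES pH 7.5/NaCl/MgCl2/DTT/glycerol buffer. 3 h RT equilibration. Em520/Em495 ratio (Ex 337 nm), control-normalized, 4-parameter fit → IC50.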
On the technique in general: In TR-FRET formats the signal depends on donor and acceptor labels being close together.

Another experiment concerns PC3 cells. As to the kind of experiment: NAMPT Cell Proliferation Assay. It is filed as cell-based. The following applies: Homo sapiens, PC-3, 120 h, 5 days incubation, cell viability by Cell Titer Glo. The procedure, abridged: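 Proliferation of PC3 cells treated 5 days with a 10-fold compound series (top 10 μM) was quantified by Cell Titer Glo luminescence; IC50s were fitted from percent inhibition.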

For another experiment, the target named is NAMPT (Homo sapiens, UniProt P43490). Description: TR-FRET Binding Assay of NAMPT with PRPP. As to conditions: with 200 μM PRPP and 2.5 mM ATP; 2 nM NAMPT, 2 nM probe, 16 hours equilibration. Put shortly:
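TR-FRET probe-displacement binding with 2 nM NAMPT, 2 nM probe and 1 nM Tb-anti-His antibody, run in the presence of 200 μM PRPP and 2.5 mM ATP at 2% DMSO. Equilibrated 16 hours before reading so test compounds could undergo enzymatic modification.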

Chain of NAMPT (P43490 whole entry): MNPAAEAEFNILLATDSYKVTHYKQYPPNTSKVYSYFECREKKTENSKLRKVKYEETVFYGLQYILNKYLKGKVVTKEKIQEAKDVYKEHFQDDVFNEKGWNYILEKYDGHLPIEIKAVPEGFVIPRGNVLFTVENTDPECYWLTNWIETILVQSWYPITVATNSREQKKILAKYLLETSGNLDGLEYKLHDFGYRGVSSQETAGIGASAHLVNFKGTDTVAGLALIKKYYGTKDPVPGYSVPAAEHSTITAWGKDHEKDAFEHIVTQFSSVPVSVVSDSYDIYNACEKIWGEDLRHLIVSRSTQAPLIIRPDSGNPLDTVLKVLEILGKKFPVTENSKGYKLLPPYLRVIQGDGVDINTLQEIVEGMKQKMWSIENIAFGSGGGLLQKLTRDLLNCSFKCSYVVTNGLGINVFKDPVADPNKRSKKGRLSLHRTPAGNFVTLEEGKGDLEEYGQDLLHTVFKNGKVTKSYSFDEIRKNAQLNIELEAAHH
Chain of NAMPT (human, recombinant, C-terminally His-tagged) (P43490 whole entry): as above

With `CC[C@H](C)C(=O)N1CCC(Oc2ccc(C(=O)NCc3ccn4ccnc4c3)cc2)CC1` [Example 413, N-(imidazo[1,2-a]pyridin-7-ylmethyl)-4-({1-[(2S)-2-methylbutanoyl]piperidin-4-yl}oxy)benzamide], the IC50 in experiment [1] came out at 0.805 µM; in the experiment with PC3 cells it was 0.19 µM; on NAMPT, 0.000279 µM.

For `CC(C)(O)Cn1cc(-c2ccc(C(=O)NCc3ccn4ccnc4c3)o2)cn1` [Example 483, 5-[1-(2-hydroxy-2-methylpropyl)-1H-pyrazol-4-yl]-N-(imidazo[1,2-a]pyridin-7-ylmethyl)furan-2-carboxamide], the half-maximal inhibitory concentration (IC50) in experiment [1] stood at 0.13 µM; in the experiment on PC3 cells, 0.0124 µM; at NAMPT, 0.000575 µM.

As to `Cc1nn(C)cc1CC(=O)N(CC1CCCO1)c1ncc(C(=O)NCc2ccc3nccn3c2)s1` (stereo not drawn) [Example 184, 2-{[(1,3-dimethyl-1H-pyrazol-4-yl)acetyl](tetrahydrofuran-2-ylmethyl)amino}-N-(imidazo[1,2-a]pyridin-6-ylmethyl)-1,3-thiazole-5-carboxamide], the IC50 in experiment [1] worked out at 4.34 µM; in the experiment on PC3 cells, 0.0651 µM; at NAMPT, 0.00254 µM.

With `O=C(CC1CCCC1)Nc1ccc(NC(=O)Nc2ccc3nccn3c2)cc1` [Example 3, 2-cyclopentyl-N-{4-[(imidazo[1,2-a]pyridin-6-ylcarbamoyl)amino]phenyl}acetamide], the figures for the IC50 (in experiment [1]; in the experiment with PC3 cells; on NAMPT) were 0.0316 µM, 0.0367 µM and 0.000282 µM, respectively.

Turning to `O=C(NCc1ccn2ccnc2c1)c1ccc(C2CCN(C(=O)C3CCC(F)(F)CC3)CC2)cc1` [Example 441, 4-{1-[(4,4-difluorocyclohexyl)carbonyl]piperidin-4-yl}-N-(imidazo[1,2-a]pyridin-7-ylmethyl)benzamide], the figures for the IC50 (in experiment [1]; in the experiment with PC3 cells; at NAMPT) were 0.338 µM, 0.0072 µM and 0.000324 µM, respectively.

As for `O=C(NCc1ccn2ccnc2c1)c1ccc(-c2cnn(CC3CCC3)c2)o1` [Example 481, 5-[1-(cyclobutylmethyl)-1H-pyrazol-4-yl]-N-(imidazo[1,2-a]pyridin-7-ylmethyl)furan-2-carboxamide], the IC50 in experiment [1] worked out at 0.0572 µM; in the experiment with PC3 cells, 0.00579 µM; on NAMPT, 0.000176 µM.

For `CC(C)(C)CC(=O)N1CC(c2ccc(C(=O)NCc3ccn4ccnc4c3)cc2)C1` [Example 652, 4-[1-(3,3-dimethylbutanoyl)azetidin-3-yl]-N-(imidazo[1,2-a]pyridin-7-ylmethyl)benzamide], the IC50 in experiment [1] amounted to 0.535 µM; with PC3 cells, 0.0346 µM; at NAMPT, 0.00116 µM.

Consider `CC(=O)N1CCC(c2ccc(C(=O)NCc3ccn4ccnc4c3)cc2)CC1` [Example 313, 4-(1-acetylpiperidin-4-yl)-N-(imidazo[1,2-a]pyridin-7-ylmethyl)benzamide], for which the IC50 in experiment [1] was 0.531 µM; in the experiment on PC3 cells, 0.82 µM; at NAMPT, 0.00036 µM.

`O=C(NCc1ccn2ccnc2c1)c1ccc(-c2cnn(CC3(F)CCOCC3)c2)s1` [Example 698, 5-{1-[(4-fluorotetrahydro-2H-pyran-4-yl)methyl]-1H-pyrazol-4-yl}-N-(imidazo[1,2-a]pyridin-7-ylmethyl)thiophene-2-carboxamide]: the IC50 in experiment [1] was determined as 0.0364 µM; with PC3 cells, 0.00067 µM; at NAMPT it was 0.000629 µM.

`CS(=O)(=O)N1CCC(c2ccc(C(=O)NCc3ccn4ccnc4c3)cc2)C1` (stereo not drawn) [Example 624, N-(imidazo[1,2-a]pyridin-7-ylmethyl)-4-[1-(methylsulfonyl)pyrrolidin-3-yl]benzamide]: the IC50 amounted to 0.261 µM in experiment [1], 0.329 µM with PC3 cells and 0.000627 µM at NAMPT.

As for `O=C(CC1CCOCC1)Nc1ccc(NC(=O)Nc2ccc3nccn3c2)cc1` [Example 40], the IC50 is 0.0409 µM in experiment [1], 0.0708 µM in the experiment with PC3 cells and 0.000217 µM at NAMPT.

Consider `COc1cccc(C(=O)N2CC(c3ccc(C(=O)NCc4ccn5ccnc5c4)cc3)C2)c1` [Example 654, N-(imidazo[1,2-a]pyridin-7-ylmethyl)-4-[1-(3-methoxybenzoyl)azetidin-3-yl]benzamide], for which the IC50 in experiment [1] was found to be 0.213 µM; in the experiment with PC3 cells it was 0.0679 µM; at NAMPT, 0.000945 µM.

Take `O=C(Nc1ccc(C(=O)NCCN2CCCC2)cc1)Nc1ccc2nccn2c1` [Example 11, 4-[(imidazo[1,2-a]pyridin-6-ylcarbamoyl)amino]-N-[2-(pyrrolidin-1-yl)ethyl]benzamide]: the IC50 came out at 7.6 µM in experiment [1], 4.53 µM with PC3 cells and 0.000271 µM at NAMPT.

Take `O=C(NCc1ccn2ccnc2c1)Nc1ccc(OC2CCN(C(=O)c3cc(F)cc(F)c3)CC2)cc1` [Example 730, 1-(4-{[1-(3,5-difluorobenzoyl)piperidin-4-yl]oxy}phenyl)-3-(imidazo[1,2-a]pyridin-7-ylmethyl)urea]: the figures for the IC50 (in experiment [1]; with PC3 cells; at NAMPT) were 0.489 µM, 0.0295 µM and 0.000847 µM, respectively.

Turning to `O=C(NCc1ccn2ccnc2c1)c1ccc(C2CCN(C(=O)c3ccccc3F)C2)cc1` (stereo not drawn) [Example 589, 4-[1-(2-fluorobenzoyl)pyrrolidin-3-yl]-N-(imidazo[1,2-a]pyridin-7-ylmethyl)benzamide], the IC50 in experiment [1] came to 0.0161 µM; in the experiment with PC3 cells, 0.00131 µM; at NAMPT it was 0.000887 µM.

With `O=C(NCc1ccn2ccnc2c1)c1ccc(C2CCN(C(=O)C3CCOCC3)C2)cc1` (stereo not drawn) [Example 376, N-(imidazo[1,2-a]pyridin-7-ylmethyl)-4-[1-(tetrahydro-2H-pyran-4-ylcarbonyl)pyrrolidin-3-yl]benzamide], the IC50 in experiment [1] was 1.05 µM; with PC3 cells it was over 10 µM; on NAMPT it was 0.000305 µM.

Consider `O=C(NCc1ccn2ccnc2c1)Nc1ccc(OC2CN(C(=O)c3ccccc3)C2)cc1` [Example 428, 1-{4-[(1-benzoylazetidin-3-yl)oxy]phenyl}-3-(imidazo[1,2-a]pyridin-7-ylmethyl)urea], for which the IC50 stood at 0.0871 µM in experiment [1], 0.0675 µM in the experiment with PC3 cells and 0.000258 µM at NAMPT.

On to `CC(C)CC(=O)Nc1ncc(C(=O)NCc2ccc3nccn3c2)s1` [Example 137, N-(imidazo[1,2-a]pyridin-6-ylmethyl)-2-[(3-methylbutanoyl)amino]-1,3-thiazole-5-carboxamide], for which the results for the IC50 (in experiment [1]; with PC3 cells; at NAMPT) were 0.315 µM, 0.225 µM and 0.00721 µM, respectively.

On to `O=C(CC1CCCC1)Nc1ccc(C(=O)NCc2ccc3nccn3c2)c(F)c1` [Example 462, 4-[(cyclopentylacetyl)amino]-2-fluoro-N-(imidazo[1,2-a]pyridin-6-ylmethyl)benzamide], for which the figures for the half-maximal inhibitory concentration (IC50) (in experiment [1]; with PC3 cells; at NAMPT) were 0.0591 µM, 0.00743 µM and 0.000266 µM, respectively.

Turning to `CC[C@H](C)C(=O)NC1(c2ccc(C(=O)NCc3ccn4ccnc4c3)s2)CCC1` [Example 470, N-(imidazo[1,2-a]pyridin-7-ylmethyl)-5-(1-{[(2S)-2-methylbutanoyl]amino}cyclobutyl)thiophene-2-carboxamide], the 50% inhibitory concentration (IC50) in experiment [1] turned out to be 5.58 µM; with PC3 cells, 0.936 µM; on NAMPT it was 0.000456 µM.

For the compound `CCCC(=O)N1CCC(c2ccc(NC(=O)NCc3ccn4ccnc4c3)cc2)CC1` [Example 709, 1-[4-(1-butanoylpiperidin-4-yl)phenyl]-3-(imidazo[1,2-a]pyridin-7-ylmethyl)urea], the IC50 in experiment [1] worked out at 0.0194 µM; in the experiment with PC3 cells, 0.00336 µM; at NAMPT, 0.000473 µM.

One may read the IC50 as the midpoint of a concentration-inhibition curve.
